These results are taken from ChEMBL document CHEMBL5725356, “Anti-fibrotic pyridinones” (2017).

What is called EC50 is the concentration at which the effect is half-maximal.

Molecules are shown by their SMILES.

The nature of this experiment: ET-1 Assay: Fibroblasts (primary human lung and dermal, HFL-1, 3T3 etc) are seeded in 96-well plates at ~15000 cells/well and serum starved for 0-48 hours. After media exchange, compounds serially diluted in DMSO are added to the cells. After a brief incubation of ~30 min, stimulants (TGFb, serum, LPA etc) are added followed by further incubation for 16-48 hours. Media is then harvested and stored frozen in plate format for later endothelin-1 (ET-1) determination by ELISA. Toxicity measurements are made using the ATPlite kit (Perkin-Elmer). ET-1 is quantified using an ELISA kit (R&D Systems). The amount of ET-1 produced in the assay wells are back-calculated using the ELISA standard. The ability of a compound to inhibit ET-1 production is typically analyzed by fitting dose-response curves to a 4-parameter logistic function to obtain an EC50 value. To be noted: HFL1.
`Cc1cc(=O)n(-c2ccc(C(F)(F)F)cc2)cc1-c1ccc(F)cc1`: the EC50 is greater than 200 µM.
For `O=c1cc(OCCN2CCCC2)c(-c2ccc(F)cc2)cn1-c1ccc(OC(F)(F)F)cc1`, the EC50 was less than 50 µM.
On to `O=C1CCCN1CCOc1cc(=O)n(-c2ccc(OC(F)(F)F)cc2)cc1-c1ccc(F)cc1`, for which the EC50 is greater than 200 µM.
For `O=C(NCc1ccccc1)c1cc(=O)n(-c2ccc(OC(F)(F)F)cc2)cc1-c1ccc(F)cc1`, the EC50 was greater than 200 µM.
As to `CC(=O)Nc1cccc(-n2cc(-c3ccccc3)c(C)cc2=O)c1`, the EC50 is greater than 200 µM.
As for `CN1CCC(Oc2cc(=O)n(-c3ccc(OC(F)(F)F)cc3)cc2-c2ccc(F)cc2)CC1`, the EC50 was less than 50 µM.
Take `Cn1cc(-c2cn(-c3ccc(OC(F)(F)F)cc3)c(=O)cc2NCc2ccccc2)cn1`: the EC50 was less than 50 µM.
Consider `CC(=O)Nc1cc(=O)n(-c2ccc(OC(F)(F)F)cc2)cc1-c1cnn(C)c1`, for which the EC50 was greater than 200 µM.
Next, `O=c1cc(OCCN2CCS(=O)(=O)CC2)c(-c2ccc(F)cc2)cn1-c1ccc(OC(F)(F)F)cc1`: greater than 200 µM.
As to `O=c1cc(OC2CCS(=O)(=O)CC2)c(-c2ccc(F)cc2)cn1-c1ccc(OC(F)(F)F)cc1`, the EC50 was less than 50 µM.
For `CCCNC(=O)Nc1cc(=O)n(-c2ccc(OC(F)(F)F)cc2)cc1-c1ccc(F)cc1`, the EC50 was greater than 200 µM.
As to `COC(=O)Nc1cc(=O)n(-c2ccc(OC(F)(F)F)cc2)cc1-c1ccc(F)cc1`, the EC50 is greater than 200 µM.
With `O=C1CNCCN1CCOc1cc(=O)n(-c2ccc(OC(F)(F)F)cc2)cc1-c1ccc(F)cc1`, the EC50 was greater than 200 µM.
For `Cc1cc(=O)n(-c2cccc(OC(F)(F)F)c2)cc1-c1ccccc1`, the EC50 is less than 50 µM.
Consider `O=c1cc(NCc2ccccc2)c(-c2ccc(F)cc2)cn1-c1ccc(OC(F)(F)F)cc1`, for which the EC50 is greater than 200 µM.
Regarding `Cn1cc(-c2cn(-c3ccc(OC(F)(F)F)cc3)c(=O)cc2OCCN2CCCC2=O)cn1`, the concentration for a half-maximal effect (EC50) is greater than 200 µM.
Regarding `CCCOC(=O)Nc1cc(=O)n(-c2ccc(OC(F)(F)F)cc2)cc1-c1ccc(F)cc1`, the EC50 is greater than 200 µM.
For `Cn1cc(-c2cn(-c3ccc(OC(F)(F)F)cc3)c(=O)cc2N)cn1`, the 50% effective concentration (EC50) was greater than 200 µM.
With `Cn1cc(-c2cn(-c3ccc(OC(F)(F)F)cc3)c(=O)cc2N2CCc3ccccc3C2)cn1`, the EC50 entry is “in the range around 125 µM”.
Next, `Cn1cc(-c2cn(-c3ccc(OC(F)(F)F)cc3)c(=O)cc2NCCc2ccccc2)cn1`: greater than 200 µM.
In the case of `COCCOc1cc(=O)n(-c2ccc(OC(F)(F)F)cc2)cc1-c1ccc(F)cc1`, the concentration giving a half-maximal response (EC50) was greater than 200 µM.
`Cn1cc(-c2cn(-c3ccc(OC(F)(F)F)cc3)c(=O)cc2OCCN2CCOCC2)cn1`: the EC50 was greater than 200 µM.
Turning to `O=C(Nc1cc(=O)n(-c2ccc(OC(F)(F)F)cc2)cc1-c1ccc(F)cc1)OCc1ccccc1`, the EC50 was greater than 200 µM.
Regarding `Cn1cc(-c2cn(-c3ccc(OC(F)(F)F)cc3)c(=O)cc2OCc2ccccc2)cn1`, the EC50 is greater than 200 µM.
For `CCOc1ccc(-n2cc(-c3ccccc3)c(C)cc2=O)c(C)c1`, the EC50 result was “in the range around 125 µM”.
As to `CCOC(=O)Nc1cc(=O)n(-c2ccc(OC(F)(F)F)cc2)cc1-c1ccc(F)cc1`, the EC50 was greater than 200 µM.
Take `Cn1cc(-c2cn(-c3ccc(OC(F)(F)F)cc3)c(=O)cc2NCc2cccnc2)cn1`: the 50% effective concentration (EC50) entry is “in the range around 125 µM”.
Turning to `COc1cc(=O)n(-c2ccc(OC(F)(F)F)cc2)cc1-c1cnn(C)c1`, the EC50 was less than 50 µM.
Next, `CCC(=O)Nc1cc(=O)n(-c2ccc(OC(F)(F)F)cc2)cc1-c1ccc(F)cc1`: greater than 200 µM.
In the case of `COC(=O)Nc1cc(=O)n(-c2ccc(OC(F)(F)F)cc2)cc1-c1cnn(C)c1`, the concentration for a half-maximal effect (EC50) is greater than 200 µM.
As to `Cn1cc(-c2cn(-c3ccc(OC(F)(F)F)cc3)c(=O)cc2N2CCOCC2)cn1`, the EC50 was less than 50 µM.
`O=c1cc(Oc2ccccc2)c(-c2ccc(F)cc2)cn1-c1ccc(OC(F)(F)F)cc1`: the EC50 is greater than 200 µM.
The entry for `Cn1cc(-c2cn(-c3ccc(OC(F)(F)F)cc3)c(=O)cc2OC2CCS(=O)(=O)CC2)cn1` is “in the range around 125 µM”.
As for `CNc1cc(=O)n(-c2ccc(OC(F)(F)F)cc2)cc1-c1cnn(C)c1`, the EC50 was greater than 200 µM.
`Cn1cc(-c2cn(-c3ccc(OC(F)(F)F)cc3)c(=O)cc2NCc2c(F)cccc2F)cn1`: the EC50 entry was “in the range around 125 µM”.
The figure for `Cc1cc(=O)n(-c2cccc(C(F)(F)F)c2)cc1-c1ccccc1` is less than 50 µM; for `CC(C)OC(=O)Nc1cc(=O)n(-c2ccc(OC(F)(F)F)cc2)cc1-c1cnn(C)c1` it is greater than 200 µM.
Consider `CN(Cc1ccccc1)c1cc(=O)n(-c2ccc(OC(F)(F)F)cc2)cc1-c1cnn(C)c1`, for which the EC50 was less than 50 µM.
`Cc1cc(=O)n(-c2ccc(Cl)cc2C)cc1-c1ccccc1`: the EC50 result is “in the range around 125 µM”.
As for `Cn1cc(-c2cn(-c3ccc(OC(F)(F)F)cc3)c(=O)cc2Oc2cc(Cl)cc(C#N)c2)cn1`, the EC50 was greater than 200 µM.
Turning to `CCOc1ccc(-n2cc(-c3ccc(F)cc3)c(OC)cc2=O)c(C)c1`, the concentration giving a half-maximal response (EC50) was less than 50 µM.
Next, `CN1CCN(CCOc2cc(=O)n(-c3ccc(OC(F)(F)F)cc3)cc2-c2ccc(F)cc2)CC1`: less than 50 µM; `CCCCC(=O)Nc1cc(=O)n(-c2ccc(OC(F)(F)F)cc2)cc1-c1ccc(F)cc1`: greater than 200 µM.
On to `CC(=O)Nc1cc(=O)n(-c2ccc(OC(F)(F)F)cc2)cc1-c1ccc(F)cc1`, for which the EC50 was greater than 200 µM.
The figure for `Cn1cc(-c2cn(-c3ccc(OC(F)(F)F)cc3)c(=O)cc2OCCN2CCS(=O)(=O)CC2)cn1` is greater than 200 µM; for `Cn1cc(-c2cn(-c3ccc(OC(F)(F)F)cc3)c(=O)cc2Oc2ccccc2)cn1` it is less than 50 µM.
For `O=c1cc(OCCN2CCOCC2)c(-c2ccc(F)cc2)cn1-c1ccc(OC(F)(F)F)cc1`, the EC50 entry is “in the range around 125 µM”.
Regarding `Cc1cc(=O)n(-c2ccc(OC(F)(F)F)cc2)cc1-c1ccccc1`, the EC50 is less than 50 µM.
As to `CCOc1ccc(Oc2cc(=O)n(-c3ccc(OC(F)(F)F)cc3)cc2-c2cnn(C)c2)cc1C#N`, the EC50 was less than 50 µM.
On to `O=c1cc(OCc2ccccc2)c(-c2ccc(F)cc2)cn1-c1ccc(OC(F)(F)F)cc1`, for which the EC50 is greater than 200 µM.
`Cn1cc(-c2cn(-c3ccc(OC(F)(F)F)cc3)c(=O)cc2OCCN2CCOCC2=O)cn1`: the EC50 result was “in the range around 125 µM”.
Regarding `CC(=O)Nc1cccc(-n2cc(-c3ccc(F)cc3)c(C)cc2=O)c1`, the EC50 is greater than 200 µM.
Regarding `O=C1COCCN1CCOc1cc(=O)n(-c2ccc(OC(F)(F)F)cc2)cc1-c1ccc(F)cc1`, the EC50 result was “in the range around 125 µM”.
Consider `O=C(NCc1ccccc1)Nc1cc(=O)n(-c2ccc(OC(F)(F)F)cc2)cc1-c1ccc(F)cc1`, for which the concentration for a half-maximal effect (EC50) is greater than 200 µM.
With `Cn1cc(-c2cn(-c3ccc(OC(F)(F)F)cc3)c(=O)cc2N2CCCCC2)cn1`, the EC50 was greater than 200 µM.
Take `CCCCOC(=O)Nc1cc(=O)n(-c2ccc(OC(F)(F)F)cc2)cc1-c1cnn(C)c1`: the EC50 result is “in the range around 125 µM”.
For `Cn1cc(-c2cn(-c3ccc(OC(F)(F)F)cc3)c(=O)cc2NCc2c(Cl)cccc2Cl)cn1`, the EC50 was greater than 200 µM.
Consider `Cn1cc(-c2cn(-c3ccc(OC(F)(F)F)cc3)c(=O)cc2NCc2ccccn2)cn1`, for which the 50% effective concentration (EC50) is less than 50 µM.
Turning to `COCCOc1cc(=O)n(-c2ccc(OC(F)(F)F)cc2)cc1-c1cnn(C)c1`, the EC50 is greater than 200 µM.
With `Cn1cc(-c2cn(-c3ccc(OC(F)(F)F)cc3)c(=O)cc2NC(=O)OCc2ccccc2)cn1`, the EC50 result is “in the range around 125 µM”.
The entry for `Cn1cc(-c2cn(-c3ccc(OC(F)(F)F)cc3)c(=O)cc2OCCN2CCCC2)cn1` is “in the range around 125 µM”.
As for `COc1ccc(CNc2cc(=O)n(-c3ccc(OC(F)(F)F)cc3)cc2-c2cnn(C)c2)cc1`, the EC50 was less than 50 µM.
The figure for `Cc1cc(=O)n(-c2ccc(C(F)(F)F)cc2)cc1-c1ccccc1` is less than 50 µM; for `Cn1cc(-c2cn(-c3ccc(OC(F)(F)F)cc3)c(=O)cc2C(=O)O)cn1` it is greater than 200 µM.
Next, `CC(C)C(=O)Nc1cc(=O)n(-c2ccc(OC(F)(F)F)cc2)cc1-c1ccc(F)cc1`: greater than 200 µM; `Cn1cc(-c2cn(-c3ccc(OC(F)(F)F)cc3)c(=O)cc2Nc2ccccc2)cn1`: greater than 200 µM; `Cn1cc(-c2cn(-c3ccc(OC(F)(F)F)cc3)c(=O)cc2Cl)cn1`: greater than 200 µM.
The figure for `Cn1cc(-c2cn(-c3ccc(OC(F)(F)F)cc3)c(=O)cc2O)cn1` is greater than 200 µM; for `CC(C)OC(=O)Nc1cc(=O)n(-c2ccc(OC(F)(F)F)cc2)cc1-c1ccc(F)cc1` it is greater than 200 µM; for `CCCNC(=O)c1cc(=O)n(-c2ccc(OC(F)(F)F)cc2)cc1-c1cnn(C)c1` it is greater than 200 µM.
Regarding `CNc1cc(=O)n(-c2ccc(OC(F)(F)F)cc2)cc1-c1ccc(F)cc1`, the EC50 was greater than 200 µM.
In the case of `CN1CCC(Oc2cc(=O)n(-c3ccc(OC(F)(F)F)cc3)cc2-c2cnn(C)c2)CC1`, the EC50 is less than 50 µM.
As for `CN1CCN(CCOc2cc(=O)n(-c3ccc(OC(F)(F)F)cc3)cc2-c2cnn(C)c2)CC1`, the 50% effective concentration (EC50) result was “in the range around 125 µM”.
For `CCOc1ccc(-n2cc(-c3cnn(C)c3)c(OC)cc2=O)c(C)c1`, the EC50 is less than 50 µM.
Consider `COc1ccc(CN(C)c2cc(=O)n(-c3ccc(OC(F)(F)F)cc3)cc2-c2cnn(C)c2)cc1`, for which the EC50 entry was “in the range around 125 µM”.
With `Cc1cc(=O)n(-c2ccccc2)cc1-c1ccccc1`, the 50% effective concentration (EC50) result is “in the range around 125 µM”.
Consider `CCOc1ccc(Oc2cc(=O)n(-c3ccc(OC(F)(F)F)cc3)cc2-c2cnn(C)c2)cc1C`, for which the concentration for a half-maximal effect (EC50) was greater than 200 µM.
On to `CCCC(=O)Nc1cc(=O)n(-c2ccc(OC(F)(F)F)cc2)cc1-c1ccc(F)cc1`, for which the EC50 was greater than 200 µM.
`Cc1cc(=O)n(-c2ccccc2F)cc1-c1ccccc1`: the EC50 result is “in the range around 125 µM”.
On to `O=C(Nc1cc(=O)n(-c2ccc(OC(F)(F)F)cc2)cc1-c1ccc(F)cc1)Oc1ccccc1`, for which the EC50 was greater than 200 µM.
With `CCOC(=O)Nc1cc(=O)n(-c2ccc(OC(F)(F)F)cc2)cc1-c1cnn(C)c1`, the concentration giving a half-maximal response (EC50) is greater than 200 µM.
